Data: patent publication US20200247812A1 (Integral Biosciences Private Limited, priority 2018, published 2020)

Key:
Format in all cases: cell-based
HCT116 = experiment: Cell viability assay (resazurin), HCT116; conditions: Homo sapiens, HCT-116, 72-144 hr
Protocol: (§1) Different cell lines such as pancreatic, (MIA PaCa-2; ATCC®CRL-1420™ & and Panc-1; CRL-1469™), liver carcinoma (HepG2; ATCC® HB-8065™), lung epithelial carcinoma (A549; ATCC® CCL-185™) and others were seeded in their respective medium (DMEM, Cat #10569044, MEM, Cat #41090036; RPMI, Cat #22400089; all with 10% FBS, Gibco, ThermoFisher) at a cell count of 3000 cells per 100 μl per well in a 96 well edge plate (167425; ThermoFisher). Cells were allowed to grow at 37° C. for 24 hr in 5% CO2 (culture conditions) in a Nuaire incubator (humidified). Serially diluted compounds (100 μl) were added to the culture plate 24 hr later and the cultures were further incubated in culture conditions for specified time depending on doubling time of specific cell line (ranging from 72-144 hr). Experiment was terminated at the completion of incubation time with the drug by replacing the medium with 100 μl of 1 mM of resazurin (R7017; Sigma) prepared in respective culture medium and the plates were further incubated in culture conditions for 4 hr. Fluorescence was then measured using a multimodal plate reader (Biotek Synergy Neo) at an excitation wavelength of 535 nm and emission wavelength of 590 nm to obtain relative fluorescence units. Data analysis was done by subtracting the background fluorescence (only medium blank) value from each reading and then normalizing with the vehicle control (DMSO treated cells) to obtain percent survival/proliferation. Percent survival at different doses was used to calculate IC50 by fitting the curve to the “four-parameter variable slope logistic model” using Prism Graph Pad.

MiaPaCa-2 = experiment: Cell viability assay (resazurin), MiaPaCa-2; conditions: Homo sapiens, MIA PaCa-2, 72-144 hr
Protocol: (§2) Different cell lines such as pancreatic, (MIA PaCa-2; ATCC®CRL-1420™ & and Panc-1; CRL-1469™), liver carcinoma (HepG2; ATCC® HB-8065™), lung epithelial carcinoma (A549; ATCC® CCL-185™) and others were seeded in their respective medium (DMEM, Cat #10569044, MEM, Cat #41090036; RPMI, Cat #22400089; all with 10% FBS, Gibco, ThermoFisher) at a cell count of 3000 cells per 100 μl per well in a 96 well edge plate (167425; ThermoFisher). Cells were allowed to grow at 37° C. for 24 hr in 5% CO2 (culture conditions) in a Nuaire incubator (humidified). Serially diluted compounds (100 μl) were added to the culture plate 24 hr later and the cultures were further incubated in culture conditions for specified time depending on doubling time of specific cell line (ranging from 72-144 hr). […] Fluorescence was then measured using a multimodal plate reader (Biotek Synergy Neo) at an excitation wavelength of 535 nm and emission wavelength of 590 nm to obtain relative fluorescence units. Data analysis was done by subtracting the background fluorescence (only medium blank) value from each reading and then normalizing with the vehicle control (DMSO treated cells) to obtain percent survival/proliferation. […]

A427 = experiment: Cell viability assay (resazurin), A427; conditions: Homo sapiens, A-427, 72-144 hr
Protocol: as §1

HT29 = experiment: Cell viability assay (resazurin), HT29; conditions: Homo sapiens, HT-29, 72-144 hr
Protocol: as §2

THP1 = experiment: Cell viability assay (resazurin), THP1; conditions: Homo sapiens, THP-1, 72-144 hr
Protocol: as §1

Panc-10.05 = experiment: Cell viability assay (resazurin), Panc-10.05; conditions: Homo sapiens, Panc1005, 72-144 hr
Protocol: as §1

[1] = system: mIFN-γ release by activated mouse splenocytes; experiment: Mouse splenocyte assay: reversal of TGF-β suppressed, CD3e/CD28 induced mIFN-γ release (ELISA); conditions: Balb/c splenocytes, anti-CD3e/CD28, mouse TGF-β 10 ng/ml, 72 hr, read-out: Inhibition of mIFN-γ release by activated Mouse Splenocyte, IC50
Protocol: IC50 values of compounds for reversal of TGF-β suppressed and CD3e/CD28 induced mIFNγ release was determined in mouse splenocytes isolated from Balb/c mice cultured in RPMI, Cat #22400089; 10% FBS, Gibco, ThermoFisher). Mouse splenocytes (2×10^5 cells/well) were activated with Anti-mouse CD3e (2.5 μg/ml, coated overnight at 4° C.; Cat #14-0032-82, eBioscience) and then incubated with serial dilutions of compounds (3 fold, 8 point dose response starting at 3 μM) in the presence of mouse TGF-β (10 ng/ml; Cat #14-8342-80, ebiosciences) for 30 min at 37° C., 5% CO2 in an incubator (cell culture conditions) prior to treating them with Anti-mouse CD28 (0.1 μg/ml soluble; Cat #16-0281-82, eBiosciences). Splenocytes were further incubated under cell culture conditions for 72 hr after which the supernatant was harvested, diluted to 1:50 and ELISA was performed as per the manufacturer's protocol (mIFN-γ kit; Cat #555138 & 550534, BD Biosciences). Plates were read in Biotek plate reader by measuring absorbance at 450 nm.
The reversal of TGF-β suppressed mIFN-γ release by compounds was quantified by first obtaining the amount of mIFN-γ (in pg/ml) released at each concentration of the compound with respect to the mIFN-γ standard. […] The IC50 was calculated by fitting the curve to the “four-parameter variable slope logistic model” using Prism Graph Pad.

mouse splenocytes = experiment: Mouse splenocyte viability assay (CD3e/CD28 activated, resazurin); conditions: CD3e/CD28 activated Balb/c splenocytes, 72 hr
Protocol: IC50 values of compounds for determining viability in CD3e/CD28 activated mouse splenocytes isolated from Balb/c mice cultured in RPMI, Cat #22400089; with 10% FBS, Gibco, ThermoFisher). Mouse splenocytes (2×10^5 cells/well) were activated with Anti-mouse CD3e (2.5 μg/ml, coated overnight at 4° C.; Cat #14-0032-82, eBioscience) and then incubated with serial dilutions of compounds (3 fold, 8 point dose response starting at 30 μM) for 30 min at 37° C., 5% CO2 in an incubator (cell culture conditions) prior to treating them with Anti-mouse CD28 (0.1 μg/ml soluble; Cat #16-0281-82, eBiosciences). Splenocytes were further incubated under cell culture conditions for 72 hr following which experiment was terminated by replacing the medium with 100 μl of 1 mM of resazurin (R7017; Sigma) prepared in respective culture medium and the plates were further incubated in culture conditions for 4 hr. Fluorescence was then measured using a multimodal plate reader (Biotek Synergy Neo) at an excitation wavelength of 535 nm and emission wavelength of 590 nm to obtain relative fluorescence units. Data analysis was done by subtracting the background fluorescence (only medium blank) value from each reading and then normalizing with the average of vehicle control (DMSO treated cells) to obtain percent survival/proliferation. […]

SMILES	IC50 (HCT116)	IC50 (MiaPaCa-2)	IC50 (A427)	IC50 (HT29)	IC50 (THP1)	IC50 (Panc-10.05)	IC50 [1]	IC50 (mouse splenocytes)
CC(=O)Nc1cc(Nc2cc(-c3cc(Cl)ccc3F)c(=O)[nH]c2C(C)C)ccn1 [Compound 1.48, N-(4-((5-(5-chloro-2-fluorophenyl)-2-isopropyl-6-oxo-1,6-dihydropyridin-3-yl)amino)pyridin-2-yl)acetamide]	> 30 µM	> 30 µM	> 30 µM	14.7 µM	> 30 µM	> 30 µM	0.156 µM	> 30 µM
CC(C)c1[nH]c(=O)c(-c2cc(Cl)ccc2F)cc1Nc1ccnc2[nH]ccc12 [Compound 1.50, 5-((1H-pyrrolo[2,3-b]pyridin-4-yl)amino)-3-(5-chloro-2-fluorophenyl)-6-isopropylpyridin-2(1H)-one]	1.97 µM	> 30 µM	3.55 µM	3.82 µM	13.4 µM	4.72 µM	0.107 µM	> 30 µM
